Measurements: patent publication US9458499B2, “Nucleic acid binding dyes and uses therefor” (PROMEGA CORPORATION, priority 2009, dated 2016)
Counter-ions that a name gives are not always drawn.

Columns and labels:
Format in all cases: physicochemical
dsDNA = test: Quantum yield, absorbance and emission of dyes with dsDNA; conditions: for absorbance λEx dsDNA / emission λmaxEM dsDNA: Table 1; for Em λ (ds DNA): Example 1
ds DNA = test: Relative brightness of stains with ds DNA (protocol of Nygren et al.)
Description: (§1) The relative brightness of certain compounds (Table 2) was determined based on the protocol in Nygren, J., Svanvik, N., Kubista, M. (1998) Biopolymers, Vol. 46, 39-51, which is incorporated by reference herein.

ss DNA = test: Relative brightness of stains with ss DNA (protocol of Nygren et al.)
Description: as §1

quantum yield (Φ) dsDNA (dsDNA)	absorbance λEx dsDNA (dsDNA) [nm]	emission λmaxEM dsDNA (dsDNA)	Em λ (ds DNA) (dsDNA) [nm]	SMILES	Relative Brightness ds DNA (ds DNA)	Relative Brightness ss DNA (ss DNA)
0.68	494	529	–	CCCN(CCCN(C)C)c1cc(/C=C2\Sc3cccc4c3N2CCC4)c2ccccc2[n+]1C [PBI 3678, 1-methyl-4-((5,6-dihydrothiazolo[5,4,3-ij]quinolin-2(4H)-ylidene)methyl)-2-((3-(dimethylamino)propyl)(propyl)amino)quinolinium trifluoroacetate]	–	–
0.70	498	529	529	CCCN(CCCN(C)C)C1=C/C(=C\c2sc3cccc4c3[n+]2CCC4)c2ccccc2N1c1ccccc1 [PBI 3654, 1-((2-((3-(Dimethylamino)propyl)(propyl)amino)-1-phenylquinolin-4(1H)-ylidene)methyl)-7,8-dihydro-6H-thiazolo[5,4,3-ij]quinolin-9-ium]	–	–
–	–	–	–	CCCN(CCC[N+](C)(C)C)c1cc(/C=C2\Sc3cccc4c3N2CCC4)c2ccc(OC)cc2[n+]1-c1ccccc1 [PBI 4054, 4-((5,6-dihydrothiazolo[5,4,3-ij]quinolin-2(4H)-ylidene)methyl)-7-methoxy-1-phenyl-2-(propyl(3-(trimethylammonio)propyl)amino)quinolinium]	1.19	3.10
0.39	466	529	529	CN(C)CCN(C)C1=C/C(=C\c2sc3cccc4c3[n+]2CCC4)c2ccccc2N1c1ccccc1 [compound 3568, 1-((2-((2-(Dimethylamino)ethyl)(methyl)amino)-1-phenylquinolin-4(1H)-ylidene)methyl)-7,8-dihydro-6H-thiazolo[5,4,3-ij]quinolin-9-ium]	–	–
0.68	494	529	–	CCCCN(CCCN(C)C)c1cc(/C=C2/Sc3cccc4c3N2CCC4)c2ccccc2[n+]1-c1ccccc1 [PBI 3667, 2-(butyl(3-(dimethylamino)propyl)amino)-4-((5,6-dihydrothiazolo[5,4,3-ij]quinolin-2(4H)-ylidene)methyl)-1-phenylquinolinium trifluoroacetate]	–	–
–	–	–	–	COc1ccc2c(/C=C3\Sc4cccc5c4N3CCC5)cc(N(C)C)[n+](Cc3ccccc3)c2c1 [PBI 4051, 1-benzyl-4-((5,6-dihydrothiazolo[5,4,3-ij]quinolin-2(4H)-ylidene)methyl)-2-(dimethylamino)-7-methoxyquinolinium]	0.67	1.10
0.43	504	531	531	CN(C)CCCN(CCCN(C)C)C1=C/C(=C\c2sc3cccc4c3[n+]2CCC4)c2ccccc2N1c1ccccc1 [PBI 3646, 1-((2-(Bis(3-(dimethylamino)propyl)amino)-1-phenylquinolin-4(1H)-ylidene)methyl)-7,8-dihydro-6H-thiazolo[5,4,3-ij]quinolin-9-ium]	–	–
–	–	–	–	COc1ccc2c(/C=C3\Sc4cccc5c4N3CCC5)cc(N(CCC[N+](C)(C)C)CCC[N+](C)(C)C)[n+](Cc3ccccc3)c2c1 [PBI 4050, 1-Benzyl-2-(bis(3-(trimethylammonio)propyl)amino)-4-((5,6-dihydrothiazolo[5,4,3-ij]quinolin-2(4H)-ylidene)methyl)-7-methoxyquinolinium]	0.63	1.23
0.2	504	529	529	CN1C=C/C(=C\c2sc3cccc4c3[n+]2CCC4)c2ccccc21 [compound 3632, 1-((1-Methylquinolin-4(1H)-ylidene)methyl)-7,8-dihydro-6H-thiazolo[5,4,3-ij]quinolin-9-ium]	–	–
0.48	494	527	–	CCN(CC)c1cc(/C=C2\Sc3cccc4c3N2CCC4)c2ccccc2[n+]1-c1ccccc1 [PBI 3676, 2-(diethylamino)-4-((5,6-dihydrothiazolo[5,4,3-ij]quinolin-2(4H)-ylidene)methyl)-1-phenylquinolinium trifluoroacetate]	–	–
–	–	–	–	COc1ccc2c(/C=C3\Sc4cccc5c4N3CCC5)cc(N(CCC[N+](C)(C)C)CCC[N+](C)(C)C)[n+](C)c2c1 [PBI 4052, 2-(bis(3-(trimethylammonio)propyl)amino)-4-((5,6-dihydrothiazolo[5,4,3-ij]quinolin-2(4H)-ylidene)methyl)-7-methoxy-1-methylquinolinium]	0.74	2.41
–	–	–	–	CCCN(CCC[N+](C)(C)C)c1cc(/C=C2\Sc3cccc4c3N2CCC4)c2ccc(OC)cc2[n+]1C [compound 4053, 4-((5,6-dihydrothiazolo[5,4,3-ij]quinolin-2(4H)-ylidene)methyl)-7-methoxy-1-methyl-2-(propyl(3-(trimethylammonio)propyl)amino)quinolinium]	1.26	1.82
0.31	503	535	535	CN(C)CCCN(CCCN(C)C)C1=C/C(=C\c2sc3cccc4c3[n+]2CCC4)c2ccccc2N1CCCc1ccccc1 [PBI 3675, 1-((2-(bis(3-(dimethylamino)propyl)amino)-1-(3-phenylpropyl)quinolin-4(1H)-ylidene)methyl)-7,8-dihydro-6H-thiazolo[5,4,3-ij]quinolin-9-ium]	–	–
–	–	–	–	CCCN(CCCN(C)C)c1cc(/C=C2/Sc3ccccc3N2C)c2ccccc2[n+]1-c1ccccc1 [SYBR Green 1, reference compound]	1	–
0.34	494	535	–	CN(C)CCN(Cc1ccccc1)c1cc(/C=C2/Sc3cccc4c3N2CCC4)c2ccccc2[n+]1-c1ccccc1 [PBI 3666, 2-(benzyl(2-(dimethylamino)ethyl)amino)-4-((5,6-dihydrothiazolo[5,4,3-ij]quinolin-2(4H)-ylidene)methyl)-1-phenylquinolinium trifluoroacetate]	–	–
0.34	499	533	533	CCCN(CCCN(C)C)c1cc(/C=C2/Sc3cccc4c3N2CCC4)c2ccccc2[n+]1CCCc1ccccc1 [PBI 3679, 4-((5,6-Dihydrothiazolo[5,4,3-ij]quinolin-2(4H)-ylidene)methyl)-2-((3-(dimethylamino)propyl)(propyl)amino)-1-(3-phenylpropyl)quinolinium]	–	–
0.72	494	533	–	CCCN(CCCN(C)C)c1cc(/C=C2\Sc3cccc4c3N2CCC4)c2ccccc2[n+]1Cc1ccccc1 [PBI 3677, 1-benzyl-4-((5,6-dihydrothiazolo[5,4,3-ij]quinolin-2(4H)-ylidene)methyl)-2-((3-(dimethylamino)propyl)(propyl)amino)quinolinium trifluoroacetate]	–	–
